What was measured:
[1] = system: HCT116 MTAP null cells; assay: HCT116 MTAP null cell proliferation / viability (CellTiter-Glo, 6 days); type: cell-based; settings: HCT116-MTAP null, 144 h, HCT116 MTAP null cells, 6 days, CellTiter-Glo; read-out: HCT-116 MTAP null IC50
Outline: (§1)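 Viability read by CellTiter-Glo after 6-day compound exposure of MTAP-null and wild-type HCT116 cells grown in RPMI 1640 with 10% FBS. Dosing used 1:3 steps from 1 or 10 μM (8-9 points) or 1:2 steps from 10 or 50 μM (22 points); IC50 taken where fitted curve crosses 50% of control.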

[2] = system: HCT116 WT cells; assay: HCT116 WT cell proliferation / viability (CellTiter-Glo, 6 days); type: cell-based; settings: Homo sapiens, HCT-116, 144 h, HCT116 WT cells, 6 days, CellTiter-Glo; read-out: HCT-116 WT IC50
Outline: as §1

Structure (SMILES) | IC50 [1] | IC50 [2]
Nc1nc2cnc(C(=O)N(Cc3ccc(C(F)(F)F)cn3)c3cnn(C(F)(F)F)c3)cc2c2c1COC2 [Example 732, 4-amino-N-(1-(trifluoromethyl)-1H-pyrazol-4-yl)-N-((5-(trifluoromethyl)-2-pyridinyl)methyl)-1,3-dihydrofuro[3,4-c][1,7]naphthyridine-8-carboxamide] | 87 nM | 2850 nM
CC(C)N(Cc1ccc(C(F)(F)F)cc1)C(=O)c1cc2c3c(c(N)nc2cn1)COC3 [Example 733, 4-amino-N-(2-propanyl)-N-(4-(trifluoromethyl)benzyl)-1,3-dihydrofuro[3,4-c][1,7]naphthyridine-8-carboxamide] | 290 nM | 6300 nM
Nc1nc2cnc(C(=O)N(Cc3ccc(C(F)(F)F)cc3)C3CC3)cc2c2c1COC2 [Example 734, 4-amino-N-cyclopropyl-N-(4-(trifluoromethyl)benzyl)-1,3-dihydrofuro[3,4-c][1,7]naphthyridine-8-carboxamide] | 383 nM | 14400 nM
C[C@@H](c1ccc(C(F)(F)F)cn1)N(C(=O)c1ccc2nc(N)c3c(c2c1)COC3)C1CC1 [Example 735, 4-amino-N-cyclopropyl-N-((1S)-1-(5-(trifluoromethyl)-2-pyridinyl)ethyl)-1,3-dihydrofuro[3,4-c]quinoline-8-carboxamide] | 5500 nM | 36200 nM
C[C@H](c1ccc(C(F)(F)F)cn1)N(C(=O)c1ccc2nc(N)c3c(c2c1)COC3)C1CC1 [Example 736, 4-amino-N-cyclopropyl-N-((1R)-1-(5-(trifluoromethyl)-2-pyridinyl)ethyl)-1,3-dihydrofuro[3,4-c]quinoline-8-carboxamide] | 127 nM | 4890 nM
Nc1nc2cc(Cl)c(C(=O)N(Cc3ccc(C(F)(F)F)nn3)CC3CC3)cc2c2c1COC2 [Example 741, 4-amino-7-chloro-N-(cyclopropylmethyl)-N-((6-(trifluoromethyl)-3-pyridazinyl)methyl)-1,3-dihydrofuro[3,4-c]quinoline-8-carboxamide] | 42 nM | 1020 nM
CCN(C(=O)c1ccc2nc(N)c3c(c2c1)COC3)[C@H](C)c1ccc(C(F)(F)F)cc1F [Example 742, 4-amino-N-ethyl-N-((1R)-1-(2-fluoro-4-(trifluoromethyl)phenyl)ethyl)-1,3-dihydrofuro[3,4-c]quinoline-8-carboxamide] | 66 nM | 2500 nM
C[C@H](c1ccc(C(F)(F)F)nn1)N(C(=O)c1cc2c3c(c(N)nc2cc1Cl)COC3)C1CCC1 [Example 744, 4-amino-7-chloro-N-cyclobutyl-N-((1R)-1-(6-(trifluoromethyl)-3-pyridazinyl)ethyl)-1,3-dihydrofuro[3,4-c]quinoline-8-carboxamide] | 38 nM | 967 nM
C[C@H](c1ccc(C(F)(F)F)nn1)N(C(=O)c1ccc2nc(N)c3c(c2c1)COC3)C1CCC1 [Example 745, 4-amino-N-cyclobutyl-N-((1R)-1-(6-(trifluoromethyl)-3-pyridazinyl)ethyl)-1,3-dihydrofuro[3,4-c]quinoline-8-carboxamide] | 246 nM | 14800 nM
CCOc1ccc(CN(CC)C(=O)c2cc3c4c(c(N)nc3cc2F)COC4)nn1 [Example 747, 4-amino-N-((6-ethoxy-3-pyridazinyl)methyl)-N-ethyl-7-fluoro-1,3-dihydrofuro[3,4-c]quinoline-8-carboxamide] | 161 nM | 5090 nM
CCN(C(=O)c1ccc2nc(N)c3c(c2c1)COC3)[C@H](c1ccc(C(F)(F)F)cn1)C1CC1 [Example 748, 4-amino-N-((S)-cyclopropyl(5-(trifluoromethyl)-2-pyridinyl)methyl)-N-ethyl-1,3-dihydrofuro[3,4-c]quinoline-8-carboxamide] | 5350 nM | 36400 nM
CCOc1ccc(CN(C(=O)c2cc3c4c(c(N)nc3cn2)COC4)[C@H](C)c2ncccn2)nn1 [Example 749, 4-amino-N-((6-ethoxy-3-pyridazinyl)methyl)-N-((1R)-1-(2-pyrimidinyl)ethyl)-1,3-dihydrofuro[3,4-c][1,7]naphthyridine-8-carboxamide] | 177 nM | 3340 nM
CCOc1ccc(CN(CC2CC2)C(=O)c2cc3c4c(c(N)nc3cn2)COC4)nn1 [Example 753, 4-amino-N-(cyclopropylmethyl)-N-((6-ethoxy-3-pyridazinyl)methyl)-1,3-dihydrofuro[3,4-c][1,7]naphthyridine-8-carboxamide] | 124 nM | 3890 nM
CC(C)N(Cc1ccc(C(F)(F)F)cn1)C(=O)c1ccc2nc(N)c3ncncc3c2c1 [Example 755, 5-amino-N-(2-propanyl)-N-((5-(trifluoromethyl)-2-pyridinyl)methyl)pyrimido[4,5-c]quinoline-9-carboxamide] | 892 nM | 6420 nM
CC(C)N(Cc1ccc(C(F)(F)F)cn1)C(=O)c1cc2c(cn1)nc(N)c1ccncc12 [Example 756, 5-amino-N-(2-propanyl)-N-((5-(trifluoromethyl)-2-pyridinyl)methyl)pyrido[4,3-c][1,7]naphthyridine-9-carboxamide] | 49 nM | 744 nM
CCN(C(=O)c1ccc2nc(N)c3c(c2c1)COC3)C(C)(C)c1ccc(C(F)(F)F)cc1 [Example 759, 4-amino-N-ethyl-N-(2-(4-(trifluoromethyl)phenyl)-2-propanyl)-1,3-dihydrofuro[3,4-c]quinoline-8-carboxamide] | 6730 nM | 11800 nM
CC(C)N(Cc1ccc(C(F)(F)F)cn1)C(=O)c1cc2c(cn1)nc(N)c1ncncc12 [Example 760, 5-amino-N-(2-propanyl)-N-((5-(trifluoromethyl)-2-pyridinyl)methyl)pyrimido[4,5-c][1,7]naphthyridine-9-carboxamide] | 743 nM | 6100 nM
CC[C@H](c1ccc(C(F)(F)F)cn1)N(CC)C(=O)c1cc2c3c(c(N)nc2cn1)COC3 [Example 761, 4-amino-N-ethyl-N-((1R)-1-(5-(trifluoromethyl)-2-pyridinyl)propyl)-1,3-dihydrofuro[3,4-c][1,7]naphthyridine-8-carboxamide] | 305 nM | 13600 nM

More lines, in order of falling IC50 [1], values ahead:

IC50 [1] | IC50 [2] | Structure (SMILES)
37 nM | 658 nM | CCOc1ccc(CN(C(=O)c2ccc3nc(N)c4c(cnn4C)c3c2)[C@H](C)c2ncccn2)nn1 [Example 758, 4-amino-N-((6-ethoxy-3-pyridazinyl)methyl)-3-methyl-N-((1R)-1-(2-pyrimidinyl)ethyl)-3H-pyrazolo[3,4-c]quinoline-8-carboxamide]
34 nM | 3460 nM | C[C@H](c1ccc(C(F)(F)F)cn1)N(C(=O)c1ccc2nc(N)c3c(c2c1)CO[C@@H]3C)C1CC1 [Example 746, (3R)-4-amino-N-cyclopropyl-3-methyl-N-((1R)-1-(5-(trifluoromethyl)-2-pyridinyl)ethyl)-1,3-dihydrofuro[3,4-c]quinoline-8-carboxamide]
33 nM | 771 nM | CCOc1ccc(CN(CC2CC2)C(=O)c2cc3c4c(c(N)nc3cc2F)COC4)nn1 [Example 752, 4-amino-N-(cyclopropylmethyl)-N-((6-ethoxy-3-pyridazinyl)methyl)-7-fluoro-1,3-dihydrofuro[3,4-c]quinoline-8-carboxamide]
26 nM | 1320 nM | Cn1cc(N(Cc2ccc(C(F)(F)F)cn2)C(=O)c2ccc3nc(N)c4cnn(C)c4c3c2)cn1 [Example 757, 4-amino-1-methyl-N-(1-methyl-1H-pyrazol-4-yl)-N-((5-(trifluoromethyl)-2-pyridinyl)methyl)-1H-pyrazolo[4,3-c]quinoline-8-carboxamide]
24 nM | 370 nM | CC(C)N(Cc1ccc(C(F)(F)F)cn1)C(=O)c1ccc2nc(N)c3ccncc3c2c1 [Example 754, 5-amino-N-(2-propanyl)-N-((5-(trifluoromethyl)-2-pyridinyl)methyl)benzo[c][2,6]naphthyridine-9-carboxamide]
23 nM | 767 nM | Cn1cc(N(Cc2ccc(C(F)(F)F)nn2)C(=O)c2cc3c4c(c(N)nc3cc2F)COC4)cn1 [Example 750, 4-amino-7-fluoro-N-(1-methyl-1H-pyrazol-4-yl)-N-((6-(trifluoromethyl)-3-pyridazinyl)methyl)-1,3-dihydrofuro[3,4-c]quinoline-8-carboxamide]
17 nM | 337 nM | Cn1cc(N(Cc2ccc(C(F)(F)F)nn2)C(=O)c2cc3c4c(c(N)nc3cc2Cl)COC4)cn1 [Example 751, 4-amino-7-chloro-N-(1-methyl-1H-pyrazol-4-yl)-N-((6-(trifluoromethyl)-3-pyridazinyl)methyl)-1,3-dihydrofuro[3,4-c]quinoline-8-carboxamide]
15 nM | 1090 nM | CCN(C(=O)c1ccc2nc(N)c3c(c2c1)COC3)[C@H](C)c1ccc(C(F)(F)F)cc1 [Example 743, 4-amino-N-ethyl-N-((1R)-1-(4-(trifluoromethyl)phenyl)ethyl)-1,3-dihydrofuro[3,4-c]quinoline-8-carboxamide]
13 nM | 430 nM | CCN(C(=O)c1cc2c3c(c(N)nc2cc1Cl)COC3)[C@H](C)c1ccc(C(F)(F)F)cn1 [Example 738, 4-amino-7-chloro-N-ethyl-N-((1R)-1-(5-(trifluoromethyl)-2-pyridinyl)ethyl)-1,3-dihydrofuro[3,4-c]quinoline-8-carboxamide]
5 nM | 100 nM | Cn1cc(N(Cc2ccc(C(F)(F)F)cn2)C(=O)c2cc3c(cc2F)nc(N)c2cnn(C)c23)cn1 [Example 740, 4-amino-7-fluoro-1-methyl-N-(1-methyl-1H-pyrazol-4-yl)-N-((5-(trifluoromethyl)-2-pyridinyl)methyl)-1H-pyrazolo[4,3-c]quinoline-8-carboxamide]
